pIC50: −log10 of the molar value.
Target: human P2X3 receptor (Homo sapiens (Human), UniProt P56373)
Assay: P2X3 receptor inhibition, ATP-evoked Fluo-3 fluorescence (FDSS 3000)
Format: cell-based
Conditions: C6BU-1 cell transfected with human P2X3 receptor gene

Sequence of human P2X3 receptor (P56373 whole entry): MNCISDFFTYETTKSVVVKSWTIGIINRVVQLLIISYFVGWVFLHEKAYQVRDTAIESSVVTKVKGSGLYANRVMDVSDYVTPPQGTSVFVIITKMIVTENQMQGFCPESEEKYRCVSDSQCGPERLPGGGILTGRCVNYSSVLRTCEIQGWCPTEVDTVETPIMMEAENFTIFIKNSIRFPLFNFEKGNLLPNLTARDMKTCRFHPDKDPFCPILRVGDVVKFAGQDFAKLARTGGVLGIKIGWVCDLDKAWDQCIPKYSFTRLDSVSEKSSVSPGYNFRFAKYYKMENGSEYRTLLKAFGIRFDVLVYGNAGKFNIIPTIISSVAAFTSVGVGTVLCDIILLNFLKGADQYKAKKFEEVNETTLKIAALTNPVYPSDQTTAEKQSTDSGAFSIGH

Row | SMILES | pIC50
1 | CC(C)n1c(=O)nc(Nc2ccc(Oc3ccccc3)cc2)n(Cc2ccc(F)cc2)c1=O [I-128] | 6.08
2 | COCCOc1ccc(Nc2nc(=O)n(C(C)C)c(=O)n2Cc2ccc(Cl)cc2)cc1Cl [I-237] | 6.64
3 | CCOc1ccc(/N=c2\[nH]c(=O)n(C[C@@H](C)C(=O)OC)c(=O)n2Cc2ccc(Cl)cc2)cc1 [I-480] | 7.92
4 | CC(C)n1c(=O)nc(Nc2ccc(OC3CCOCC3)c(Cl)c2)n(Cc2ccc(Cl)cc2)c1=O [I-239] | 6.94
5 | CC(C)Oc1ccc(Nc2nc(=O)n(CCN3CCOCC3)c(=O)n2Cc2ccc(Cl)cc2)cc1F [I-281] | 7.92
6 | CC(C)Oc1ccc(Nc2nc(=O)n(CCO)c(=O)[nH]2)cc1F [I-325] | 6.18
7 | O=c1nc(Nc2cccc(-c3ccon3)c2)n(Cc2ccc(Cl)cc2)c(=O)n1CCO [I-314] | 6.26
8 | Cc1ccc(Cn2c(=O)n(C[C@H](C)C(=O)O)c(=O)[nH]/c2=N\c2ccc(OC(C)C)c(Cl)c2)cc1 [I-518] | 8.15
9 | CN(C)Cc1ccc(/N=c2\[nH]c(=O)n(CC(C)(C)C(=O)O)c(=O)n2Cc2ccc(Cl)cc2)cc1Cl [I-495] | 6.90
10 | Cc1nc2ccc(/N=c3\[nH]c(=O)n(CC(C)(C)C(=O)O)c(=O)n3Cc3ccc(Cl)cc3)cc2o1 [I-496] | 6.90
11 | CC(C)Oc1ccc(Nc2nc(=O)n(C(C)C)c(=O)n2Cc2ccc(Cl)nc2)cc1Cl [I-235] | 6.01
12 | CC(C)Oc1ccc(/N=c2\[nH]c(=O)n(C[C@@H](C)C(=O)O)c(=O)n2Cc2ccc(Cl)cc2)cc1Cl [I-460] | 7.80
13 | Cc1cc2cc(/N=c3\[nH]c(=O)n(C[C@@H](C)C(=O)O)c(=O)n3Cc3ccc(Cl)cc3)ccc2o1 [I-564] | 7.32
14 | CSc1ccc(/N=c2\[nH]c(=O)n(CC(C)(C)C(=O)O)c(=O)n2Cc2ccc(Cl)cc2)cc1 [I-544] | 6.22
15 | CCOc1ccc(/N=c2\[nH]c(=O)n(CC(C)(C)C(=O)OC)c(=O)n2Cc2ccc(Cl)cc2)cc1Cl [I-441] | 7.96
16 | CC(C)Oc1ccc(Nc2nc(=O)n(CCN)c(=O)n2Cc2ccc(Cl)cc2)cc1F [I-290] | 6.58
17 | COC(=O)C(C)(C)Cn1c(=O)[nH]/c(=N\c2cccc(OC(F)(F)F)c2)n(Cc2ccc(Cl)cc2)c1=O [I-467] | 7.43
18 | CCOC(=O)CCCn1c(=O)[nH]/c(=N\c2ccc(OC(C)C)c(C)c2)n(Cc2ccc(C)cc2)c1=O [I-521] | 8.40
19 | CC(C)COc1ccc(Nc2nc(=O)n(CCO)c(=O)n2Cc2ccc(Cl)cc2)cc1F [I-323] | 6.83
20 | Cc1ccc(Cn2c(=O)n(CCCC(=O)O)c(=O)[nH]/c2=N\c2ccc3oc(C)cc3c2)cc1 [I-520] | 7.10
21 | CC(C)Oc1ccc(/N=c2\[nH]c(=O)n(CC(=O)NC(CO)CO)c(=O)n2Cc2ccc(Cl)cc2)cc1F [I-398] | 8.15
22 | CC(C)Cc1ccc(Nc2nc(=O)n(CCO)c(=O)n2Cc2ccc(Cl)cc2)cc1 [I-328] | 6.91
23 | CC(C)Oc1ccc(Nc2nc(=O)n(CCO)c(=O)n2Cc2ccc(F)c(F)c2)cc1F [I-339] | 6.11
24 | Cc1ccc(Cn2c(Nc3ccc(OC(C)C)cc3)nc(=O)n(C(C)C)c2=O)cc1[N+](=O)[O-] [I-218] | 6.30
25 | COC(=O)C(C)(C)Cn1c(=O)[nH]/c(=N\c2ccc3c(ccn3C)c2)n(Cc2ccc(Cl)cc2)c1=O [I-427] | 6.17
26 | CC(C)Oc1ccc(Nc2nc(=O)n(CCC(=O)O)c(=O)n2CC2CCCCC2)cc1Cl [I-382] | 7.02

Row | SMILES | pIC50
27 | COC(=O)[C@@H](C)Cn1c(=O)[nH]/c(=N\c2ccc(OC(C)C)c(Cl)c2)n(CC2CCCCC2)c1=O [I-548] | 7.92
28 | COC(=O)c1ccc(Nc2nc(=O)n(C(C)C)c(=O)n2Cc2ccc(F)cc2)cc1Cl [I-238] | 6.18
29 | COC(=O)C(C)(C)Cn1c(=O)[nH]/c(=N\c2ccc3[nH]ccc3c2)n(Cc2ccc(Cl)cc2)c1=O [I-470] | 7.10
30 | CCOc1ccc(Nc2nc(=O)n(C[C@H](C)C(=O)OC)c(=O)n2Cc2ccc(Cl)cc2)cc1C [I-532] | 7.54
31 | Cc1cc(/N=c2\[nH]c(=O)n(C[C@H](C)C(=O)O)c(=O)n2Cc2ccc(Cl)cc2)ccc1OC(C)C [I-538] | 7.80
32 | Cc1cc(/N=c2\[nH]c(=O)n([C@H](C)CC(=O)O)c(=O)n2Cc2ccc(Cl)cc2)ccc1OC(C)C [I-563] | 7.40
33 | COC(=O)[C@@H](C)Cn1c(=O)[nH]/c(=N\c2ccc(OC(C)C)c(Cl)c2)n(Cc2ccc(Cl)cc2)c1=O [I-458] | 8.40
34 | COC(=O)C(C)(C)Cn1c(=O)[nH]/c(=N\c2ccc(OC(C)C)nc2)n(Cc2ccc(Cl)cc2)c1=O [I-473] | 6.23
35 | Cc1cc(/N=c2\[nH]c(=O)n(CC(C)(C)C(=O)O)c(=O)n2Cc2ccc(Cl)cc2)ccc1OC(C)C [I-432] | 7.59
36 | COC(=O)C(C)(C)Cn1c(=O)[nH]/c(=N\c2ccc(C(=O)C(C)(C)C)cc2)n(Cc2ccc(Cl)cc2)c1=O [I-402] | 6.35
37 | COC(=O)C(C)(C)Cn1c(=O)[nH]/c(=N\c2cccc(OC(F)F)c2)n(Cc2ccc(Cl)cc2)c1=O [I-443] | 6.68
38 | CC(C)Oc1ccc(/N=c2\[nH]c(=O)n(Cc3cccc(C(=O)O)c3)c(=O)n2Cc2ccc(Cl)cc2)cc1F [I-451] | 7.80
39 | COC(=O)[C@@H](C)Cn1c(=O)[nH]/c(=N\c2ccc(OC(C)C)c(F)c2)n(Cc2ccc(C)cc2)c1=O [I-515] | 8.22
40 | Cc1ccc(Cn2c(=O)n(CC(=O)N[C@@H](C)C(=O)O)c(=O)[nH]/c2=N\c2ccc(OC(C)C)c(F)c2)cc1 [I-418] | 6.70
41 | CC(C)Oc1ccc(/N=c2\[nH]c(=O)n(C[C@@H](C)C(=O)O)c(=O)n2Cc2ccc(Cl)cc2)cc1F [I-455] | 7.52
42 | CC(C)n1c(=O)nc(Nc2ccc3[nH]c(=O)oc3c2)n(Cc2ccc(Cl)cc2)c1=O [I-246] | 6.00
43 | CC(C)(Cn1c(=O)[nH]/c(=N\c2cccc(OC(F)F)c2)n(Cc2ccc(Cl)cc2)c1=O)C(=O)O [I-448] | 6.41
44 | COC(=O)C(C)n1c(=O)[nH]/c(=N\c2ccc(OC(C)C)c(F)c2)n(Cc2ccc(Cl)cc2)c1=O (centres unmarked) [I-474] | 7.85
45 | Cc1cc2cc(/N=c3\[nH]c(=O)n(CCCC(=O)O)c(=O)n3Cc3ccc(Cl)cc3)ccc2o1 [I-505] | 6.92
46 | Cc1ccc(Cn2c(=O)n(CC(=O)NC(CO)CO)c(=O)[nH]/c2=N\c2ccc(OC(C)C)c(F)c2)cc1 [I-414] | 8.15
47 | CCCSc1ccc(Nc2nc(=O)n(CCO)c(=O)n2Cc2ccc(Cl)cc2)cc1 [I-379] | 6.48
48 | COC(=O)[C@@H](C)Cn1c(=O)[nH]/c(=N\c2ccc(OC(C)C)c(F)c2)n(Cc2ccc(Cl)cc2)c1=O [I-453] | 8.30
49 | O=c1nc(Nc2ccc(OC3CCCC3)cc2)n(Cc2ccc(Cl)cc2)c(=O)n1CCO [I-322] | 6.95
50 | CSc1cccc(Nc2nc(=O)n(C(C)C)c(=O)n2Cc2ccc(C)cc2)c1 [I-118] | 6.64
51 | CC(C)Oc1ccc(Nc2nc(=O)n(CCO)c(=O)n2Cc2ccc(F)cc2)cc1F [I-333] | 6.72
52 | CCOc1ccc(Nc2nc(=O)n(C[C@H](C)C(=O)OC)c(=O)n2Cc2ccc(Cl)cc2)cc1 [I-530] | 7.47

Row | SMILES | pIC50
53 | CC(C)Oc1ccc(Nc2nc(=O)n(CC(C)(CO)CO)c(=O)n2Cc2ccc(Cl)cc2)cc1F [I-274] | 8.05
54 | COC(=O)C(C)(C)Cn1c(=O)[nH]/c(=N\c2ccc(O)c(Cl)c2)n(Cc2ccc(Cl)cc2)c1=O [I-426] | 6.68
55 | CC(C)Oc1ccc(/N=c2\[nH]c(=O)n(CC(C)(C)C(=O)O)c(=O)n2CC2CCCCCC2)cc1Cl [I-553] | 7.47
56 | CCOC(=O)CCCn1c(=O)[nH]/c(=N\c2ccc(OC(C)C)c(C)c2)n(Cc2ccc(Cl)cc2)c1=O [I-502] | 7.70
57 | O=c1nc(Nc2cccc(C(F)(F)F)c2)n(Cc2ccc(Cl)cc2)c(=O)n1CCO [I-313] | 6.75
58 | Cc1ccc(Cn2c(=O)n(CC(=O)N[C@H](C)C(=O)O)c(=O)[nH]/c2=N\c2ccc(OC(C)C)c(F)c2)cc1 [I-417] | 7.46
59 | CC(C)Oc1ccc(/N=c2\[nH]c(=O)n(CC(C)(C)C(=O)O)c(=O)n2Cc2ccc(Cl)cc2)cc1Cl [I-401] | 8.15
60 | COC(=O)C(C)(C)Cn1c(=O)[nH]/c(=N\c2ccc3nc(C)oc3c2)n(Cc2ccc(Cl)cc2)c1=O [I-494] | 7.47
61 | CC(C)Oc1ccc(Nc2nc(=O)n(CC(C)(C)CN)c(=O)n2Cc2ccc(Cl)cc2)cc1F [I-331] | 7.18
62 | Cc1ccc(Cn2c(=O)n(CCC(=O)O)c(=O)[nH]/c2=N\c2ccc(OC(C)C)c(F)c2)cc1 [I-411] | 7.21
63 | COC(=O)C(C)(C)Cn1c(=O)[nH]/c(=N\c2ccc(OC(C)C)c(Cl)c2)n(Cc2ccc(Cl)cc2)c1=O [I-399] | 8.10
64 | O=c1nc(Nc2ccc(-c3ccon3)cc2)n(Cc2ccc(Cl)cc2)c(=O)n1CCO [I-278] | 6.03
65 | CC(C)Oc1ccc(/N=c2\[nH]c(=O)n(CC3(C(=O)O)CC3)c(=O)n2Cc2ccc(Cl)cc2)cc1F [I-424] | 7.31
66 | CCOc1ccc(/N=c2\[nH]c(=O)n(C[C@@H](C)C(=O)OC)c(=O)n2Cc2ccc(Cl)cc2)cc1C [I-481] | 7.92
67 | COc1ccc(Cn2c(=O)nc(Nc3ccc(OC(C)C)c(F)c3)n(Cc3ccc(Cl)cc3)c2=O)cc1 [I-343] | 7.68
68 | CCNC(=O)NCCn1c(=O)nc(Nc2ccc(OC(C)C)c(F)c2)n(Cc2ccc(Cl)cc2)c1=O [I-389] | 7.19
69 | COC(=O)C(C)(C)Cn1c(=O)[nH]/c(=N\c2ccc(OC(C)C)c(Cl)c2)n(CC2CCCC2)c1=O [I-550] | 7.48
70 | CC(C)n1c(=O)nc(Nc2cccc(F)c2)n(Cc2ccc(F)cc2)c1=O [I-182] | 6.15
71 | CCCn1ccc2cc(/N=c3\[nH]c(=O)n(CC(C)(C)C(=O)O)c(=O)n3Cc3ccc(Cl)cc3)ccc21 [I-509] | 6.19
72 | COC(=O)[C@@H](C)Cn1c(=O)nc(Nc2ccc(OC(C)C)cc2)n(Cc2ccc(Cl)cc2)c1=O [I-529] | 7.66
73 | CC(C)Oc1ccc(Nc2nc(=O)n(CCNC(=O)NCC(=O)O)c(=O)n2Cc2ccc(Cl)cc2)cc1F [I-392] | 7.42
74 | COC(=O)[C@@H](C)Cn1c(=O)[nH]/c(=N\c2ccc3oc(C)cc3c2)n(Cc2ccc(Cl)cc2)c1=O [I-534] | 7.74
75 | Cc1cc(/N=c2\[nH]c(=O)[nH]c(=O)n2Cc2ccc(Cl)cc2)ccc1OC(C)C [I-499] | 6.86
76 | CC(C)Oc1ccc(/N=c2\[nH]c(=O)n([C@H](C)CC(=O)O)c(=O)n2Cc2ccc(Cl)cc2)cc1Cl [I-561] | 8.10
77 | CCCn1ccc2cc(/N=c3\[nH]c(=O)n(CC(C)(C)C(=O)OC)c(=O)n3Cc3ccc(Cl)cc3)ccc21 [I-507] | 6.52

— US9150546B2, “Triazine derivative and pharmaceutical composition comprising the same” (SHIONOGI & CO., LTD., priority 2009, dated 2015)
